From PMC7692634, “Structural Basis of Inhibition of the Pioneer Transcription Factor NF-Y by Suramin” (Cells, 2020)

Legend:
[1] = biological target: T1, NF-Yd/YA (reconstituted NF-Y trimer with YA3) (Homo sapiens, UniProt P25208+Q13952); experiment: EMSA inhibition of DNA binding; settings: 40 nM protein, 20 nM Cy5 HSP70 CCAAT probe, pH 7.5, 5 mM MgCl2, 30 °C; suramin 50 and 100 µM
T1 construct: gene NFYB; NF-Yd (NF-YB 49-141/NF-YC 27-120, His-tag cut) mixed with separately purified NF-YA aa 239-347, C-terminal His-tag; E. coli BL21(DE3); with Nuclear transcription factor Y subunit alpha
T1 sequence (P23511 239-347 partner, one chain of several): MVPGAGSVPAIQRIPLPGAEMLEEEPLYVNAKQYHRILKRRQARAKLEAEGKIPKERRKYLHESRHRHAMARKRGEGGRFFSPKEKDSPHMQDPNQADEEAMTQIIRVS

[2] = biological target: T2, NF-Yd (NF-YB/NF-YC histone fold domain dimer, YB/YCmd) (Homo sapiens, UniProt P25208+Q13952); experiment: ITC; type: binding
T2 construct: gene NFYB; minimal histone fold domains, NF-YB aa 49-141 with N-terminal 6His (thrombin-cleaved), NF-YC aa 27-120; coexpressed in E. coli BL21(DE3)
T2 sequence (P25208 51-143): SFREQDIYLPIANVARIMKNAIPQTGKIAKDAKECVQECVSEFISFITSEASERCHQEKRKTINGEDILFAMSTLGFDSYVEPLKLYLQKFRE
T2 sequence (Q13952 27-120): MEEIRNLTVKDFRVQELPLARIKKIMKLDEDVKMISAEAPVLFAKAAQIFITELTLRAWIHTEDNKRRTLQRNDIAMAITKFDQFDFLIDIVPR

[3] = biological target: T3, NF-Yt (NF-Ymd, minimal domain NF-Y trimer) (Homo sapiens, UniProt P25208+Q13952); experiment: STD NMR; EMSA inhibition of DNA binding; settings: STD NMR: 25 µM protein, 1 mM suramin, 10 mM Tris-DCl pH 8, 150 mM NaCl, 25 °C; EMSA: 40 nM protein, 20 nM HSP70 CCAAT probe, pH 7.5, 30 °C
T3 construct: gene NFYB; minimal domains NF-YB 49-141, NF-YC 27-120, NF-YA 262-332 with C-terminal 6His (thrombin-cleaved); coexpressed in E. coli BL21(DE3); with Nuclear transcription factor Y subunit alpha
T3 sequence (P23511 262-332 partner, one chain of several): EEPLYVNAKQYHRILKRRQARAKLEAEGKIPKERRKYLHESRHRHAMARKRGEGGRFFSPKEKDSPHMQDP

Kd [2]: 2.9 ± 0.7 µM
Compound: Cc1ccc(C(=O)Nc2ccc(S(=O)(=O)O)c3cc(S(=O)(=O)O)cc(S(=O)(=O)O)c23)cc1NC(=O)c1cccc(NC(=O)Nc2cccc(C(=O)Nc3cc(C(=O)Nc4ccc(S(=O)(=O)O)c5cc(S(=O)(=O)O)cc(S(=O)(=O)O)c45)ccc3C)c2)c1 [suramin]
EMSA inhibition of DNA binding [1]: suramin addition substantially decreased the formation of NF-Y-bound DNA complexes, in a dose-dependent manner
STD NMR; EMSA inhibition of DNA binding [3]: demonstrates the interaction of the compound with both the dimer and the trimer
